Like-named read-outs stand apart in the source and are kept apart here.
Legend:
[1] = system: carbapenem-resistant bacterial strains
Description: For each strain tested, each PMBN concentration and each indicator carbapenem, the MIC measured is compared to that obtained in the absence of PMBN. In the light of the possible difference in MIC values, a prognosis for the mechanism of resistance developed by the strain tested is established by applying the following general premise: A decrease in MICIM/ETP in the presence of PMBN is an indication of carbapenem resistance by membrane impermeability. In any other case, another mechanism of resistance is implicated.
For the purposes of verifying the accuracy of the prognoses established and the relevance of the general premise mentioned above: • each strain was tested by Western blot with the view to detection of porins (in the case in point, of the OmpF and OmpC isoforms), and • for some of the strains tested, in particular those for which there remains a doubt as to the mechanism of resistance developed (prognosis established in contradiction with the results of the porin detection by Western blot), a test for detecting carbapenemases by means of the RAPIDEC® CARBA NP kit (bioMérieux, France) was also carried out.
As regards the results thus obtained, the characterization of the strains termed carbapenem resistant by membrane impermeability is established either by the absence of porins detected by Western blot, or by carbapenem resistance that is not linked to the presence of carbapenemase, verified by a molecular method (PCR) and/or by a phenotypic method (RAPIDEC® CARBA NP).
A second method of interpretation of the results compiled in table 3 is proposed here. The prognosis system is based on the following “refined” premise: A decrease in MICIM/ETP, in the presence of PMBN, by at least a factor of 4 (that is to say with a difference in MIC of 2 doubling dilutions), is the signal of carbapenem resistance by membrane impermeability. If not, another mechanism of resistance is implicated.

[2] = system: Enterobacter aerogenes EA 2 (porin+); experiment: Etest MIC of indicator carbapenems on MH II agar without/with PMBN; type: cell-based; settings: Klebsiella aerogenes
Protocol: (§1) The determinations of antibiotic MIC were carried out on solid culture media with the Etest® method. To do this, Etest® strips (bioMérieux, France) were used: • Etest® Imipenem IM 32, and • Etest® Ertapenem ETP 32, and also solid culture media, differing from one another by virtue of their non-inhibitory concentrations of PMBN.
(§2) These solid culture media are prepared in Petri dishes (0=145 mm; V=50 ml) on a base of MH II Agar (Becton Dickinson®, United States), more or less supplemented with PMBN. The PMBN concentrations range from 0 up to concentrations equivalent to one fifth of the MIC of PMBN (⅕ MICPMBN).
(§3) Using a swab and the Retro C80™ rota-plater (bioMérieux, France), the culture media were inoculated with the bacteria, originating from an inoculum of 0.5 McFarland, prepared in 0.85% NaCl solution from colonies subcultured the day before on MH II agar.
(§4) The various Etest® strips are then deposited on the surface of the culture media. After 16 to 20 hours of incubation at 35° C., the MICS were read.

[3] = system: Enterobacter aerogenes EA 15038 (porin+); experiment: as above; type: cell-based
Protocol: as §1, §2, §3, §4

[4] = EA 2 (porin+), [PMBN] 0, read-out: MIC
[5] = EA 2 (porin+), [PMBN] MIC/8, read-out: MIC
[6] = EA 2 (porin+), [PMBN] MIC/10, read-out: MIC
[7] = Klebsiella aerogenes, EA 15038 (porin+), [PMBN] 0, read-out: MIC
[8] = Klebsiella aerogenes, EA 15038 (porin+), [PMBN] MIC/5, read-out: MIC

C[C@@H](O)[C@H]1C(=O)N2C(C(=O)O)=C(SCCN=CN)C[C@H]12 [IM, imipenem]
reliability of a negative prognosis with regard to resistance by membrane impermeability ([1]; general premise): 87% | reliability of a positive prognosis with regard to resistance by membrane impermeability ([1]; general premise): 73% | reliability of a negative prognosis with regard to resistance by membrane impermeability ([1]; refined premise): 77% | reliability of a positive prognosis with regard to resistance by membrane impermeability ([1]; refined premise): 95% | MIC [2, 4]: 0.03 µg/mL | MIC ([2]; EA 2 (porin+), [PMBN] MIC/5, read-out: MIC): 0.03 µg/mL | MIC [2, 5]: 0.06 µg/mL | MIC [2, 6]: 0.06 µg/mL | MIC [3, 7]: 0.25 µg/mL | MIC [3, 8]: 0.25 µg/mL | MIC ([3]; Klebsiella aerogenes, EA 15038 (porin+), [PMBN] MIC/8, read-out: MIC): 0.5 µg/mL | MIC ([3]; Klebsiella aerogenes, EA 15038 (porin+), [PMBN] MIC/10, read-out: MIC): 0.5 µg/mL

C[C@@H](O)[C@H]1C(=O)N2C(C(=O)O)=C(S[C@@H]3CN[C@H](C(=O)Nc4cccc(C(=O)O)c4)C3)[C@H](C)[C@H]12 [ETP, ertapenem]
reliability of a negative prognosis with regard to resistance by membrane impermeability ([1]; general premise): 90% | reliability of a positive prognosis with regard to resistance by membrane impermeability ([1]; general premise): 66% | reliability of a negative prognosis with regard to resistance by membrane impermeability ([1]; refined premise): 85% | reliability of a positive prognosis with regard to resistance by membrane impermeability ([1]; refined premise): 86% | MIC [2]: 0.125 µg/mL | MIC [2, 4]: 0.03 µg/mL | MIC [2, 5]: 0.25 µg/mL | MIC [2, 6]: 0.25 µg/mL | MIC ([3]; EA 15038 (porin+), [PMBN] MIC/8): 0.125 µg/mL | MIC ([3]; Klebsiella aerogenes): 0.125 µg/mL | MIC [3, 7]: 0.25 µg/mL | MIC [3, 8]: 0.06 µg/mL
